In ChEMBL document CHEMBL1138517, “Synthesis and structure-activity relationship of griseofulvin analogues as inhibitors of centrosomal clustering in cancer cells” (J Med Chem, 2009):

Assay: Inhibition of centrosomal clustering in human SCC114 cells expressing GFPalpha-tubulin assessed as mitotic cells with multipolar spindles by fluorescence microscopy
Type: functional, cell-based

Compound	IC50 [µM]
COC1=CC(=O)C[C@@H](C)[C@]12Oc1c(Cl)c(OC)cc(O)c1C2=O	> 100
CCOc1cc(OC)c(Cl)c2c1C(=O)[C@@]1(O2)C(OC)=CC(=O)C[C@H]1C	> 100
COC1=C/C(=N\O)C[C@@H](C)[C@]12Oc1c(Cl)c(OC)cc(OC)c1C2=O	17
COc1cc(OC)c2c(c1Cl)O[C@@]1(C(=O)C(Cc3ccccc3)=C(O)C[C@H]1C)C2=O	> 100
COC1=CC(=O)C[C@@H](C)[C@]12Oc1c(Cl)c(OC)c([N+](=O)[O-])c(OC)c1C2=O	> 100
COc1cc(OC)c2c(c1Cl)O[C@]1(C2=O)C(OCc2ccccc2)=C(I)C(=O)C[C@H]1C	> 100
COC1=C/C(=N\N(C)C)C[C@@H](C)[C@]12Oc1c(Cl)c(OC)cc(OC)c1C2=O	27
COc1cc(OC)c2c(c1Cl)O[C@]1(C2=O)C(=O)C(C)(C)C(=O)C[C@H]1C	> 100
COC1=C[C@@H](O)C[C@@H](C)[C@]12Oc1c(Cl)c(OC)cc(OC)c1C2=O	> 100
COc1cc(OC)c2c(c1Cl)O[C@@]1(C2=O)[C@H](C)C[C@H](O)C[C@@H]1OC	> 100
COc1cc(OC)c2c(c1Cl)O[C@@]1(C(=O)C=C(O)C[C@H]1C)C2=O	> 100
COC1=CC(=O)C[C@@H](C)[C@]12Oc1c(Cl)c(OC)c(NCc3ccccc3)c(OC)c1C2=O	> 100
COC1=CC(=O)C[C@@H](C)[C@]12Oc1c(Cl)c(OC)cc(OCc3ccccc3)c1C2=O	> 100
COC1=C(I)C(=O)C[C@@H](C)[C@]12Oc1c(Cl)c(OC)cc(OC)c1C2=O	> 100
COC1=CC(=O)C[C@@H](C)[C@]12Oc1c(Cl)c(OC)c(N)c(OC)c1C2=O	> 100
COC1=CC(=O)C[C@@H](C)[C@]12Oc1c(Cl)c(OC)cc(OC)c1C2=O [GRISEOFULVIN]	24
COC1=CC(=O)[C@@]2(Oc3c(Cl)c(OC)cc(OC)c3C2=O)[C@H](C)C1 [ISOGRISEOFULVIN]	> 100

Compounds with a lower IC50, results first:

IC50 [µM]	Compound
6.6	CCOC1=CC(=O)C[C@@H](C)[C@]12Oc1c(Cl)c(OC)cc(OC)c1C2=O
6.8	COc1cc(OC)c2c(c1Cl)O[C@]1(C2=O)C(OC(C)C)=CC(=O)C[C@H]1C
2	CCCOC1=C(I)C(=O)C[C@@H](C)[C@]12Oc1c(Cl)c(OC)cc(OC)c1C2=O
2.8	CCCCCOC1=CC(=O)C[C@@H](C)[C@]12Oc1c(Cl)c(OC)cc(OC)c1C2=O
1.3	COc1cc(OC)c2c(c1Cl)O[C@]1(C2=O)C(OC2CCCC2)=CC(=O)C[C@H]1C
0.9	COc1cc(OC)c2c(c1Cl)O[C@]1(C2=O)C(OCc2ccc(C)cc2)=CC(=O)C[C@H]1C
2.9	COc1cc(OC)c2c(c1Cl)O[C@]1(C2=O)C(OCc2ccc(-c3ccccc3)cc2)=CC(=O)C[C@H]1C
1.8	COc1cc(OC)c2c(c1Cl)O[C@]1(C2=O)C(OCC2CC2)=CC(=O)C[C@H]1C
1.3	COc1cc(OC)c2c(c1Cl)O[C@]1(C2=O)C(SCc2ccccc2)=CC(=O)C[C@H]1C
15	COc1cc(OC)c2c(c1Cl)O[C@]1(C2=O)C(OCCc2ccccc2)=CC(=O)C[C@H]1C
0.9	COc1cc(OC)c2c(c1Cl)O[C@]1(C2=O)C(OCc2ccccc2)=CC(=O)C[C@H]1C
0.9	COc1cc(OC)c2c(c1Cl)O[C@]1(C2=O)C(OCc2ccccc2)=C/C(=N\O)C[C@H]1C
6.6	CCCOC1=CC(=O)C[C@@H](C)[C@]12Oc1c(Cl)c(OC)cc(OC)c1C2=O
3.7	COc1cc(OC)c2c(c1Cl)O[C@]1(C2=O)C(OCC23CC4CC(CC(C4)C2)C3)=CC(=O)C[C@H]1C
2.5	CCCCOC1=CC(=O)C[C@@H](C)[C@]12Oc1c(Cl)c(OC)cc(OC)c1C2=O
1.5	COc1cc(OC)c2c(c1Cl)O[C@]1(C2=O)C(Oc2ccccc2)=CC(=O)C[C@H]1C
4	CCCCCCOC1=CC(=O)C[C@@H](C)[C@]12Oc1c(Cl)c(OC)cc(OC)c1C2=O
